Test results published in PubChem BioAssay AID2202554 (NIEHS Division of Translational Toxicology (DTT)).
Records with an inconclusive call do not appear. Activity calls are given as the source filed them. The rule behind the calls is not given here.

Test system: S. typhimurium/E. coli reverse mutation, colony counts
Assay: Bacterial reverse mutation test (aka Ames test) summary data
Outline: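 S. typhimurium his⁻ strains (TA97–TA1538) and E. coli WP2 uvrA pKM101 trp⁻, dosed over a range with or without rat, hamster or mouse liver S9. Preincubated 20 min at 37° C (or plate incorporation), plated in agar, incubated usually two days. Revertant colonies counted against negative controls.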

Row | Structure (SMILES) | outcome
1 | Nc1ccc(N=Nc2cccc(N=Nc3ccc(N)cc3N)c2)c(N)c1 | active; positive
2 | CN=[N+](C)[O-] | active; weakly positive
3 | C=CC | active; positive
4 | Nc1ccc(N=Nc2ccccc2)cc1 | active; positive
5 | O=CCCCC=O | active; positive
6 | Clc1nc2ccccc2nc1Cl | inactive; negative
7 | OCC(O)CI (stereo not drawn) | active; positive
8 | CC(=O)O | inactive; negative
9 | Nc1ncn([C@@H]2O[C@H](CO)[C@@H](O)[C@H]2O)c(=O)n1 | active; positive
10 | CCn1c2ccccc2c2cc(N)ccc21 | active; positive
11 | CC1CCCCC1CO (stereo not drawn) | inactive; negative
12 | Cc1ccc(O)cc1 | inactive; negative
13 | CN(C)c1cccc(O)c1 | active; positive
14 | [O-][Br+2]([O-])O | active; positive
15 | CCc1cccc(C)c1N(C(=O)CCl)C(C)COC (stereo not drawn) | inactive; negative
16 | ClC(Cl)(Cl)Cl | inactive; negative
17 | N=C1N=C(N)c2ccccc21 | active; positive
18 | CC(=O)OC/C=C(\C)CCC=C(C)C | inactive; negative
19 | O=C1C2(Cl)C3(Cl)C4(Cl)C(Cl)(Cl)C5(Cl)C3(Cl)C1(Cl)C5(Cl)C24Cl (stereo not drawn) | inactive; negative
20 | CCCCOc1ccc(C=Nc2ccc(CC)cc2)cc1 | active; weakly positive
21 | N=C1C=CC(=C(c2ccc(N)cc2)c2ccc(N)cc2)C=C1 | active; positive
22 | CCC[CH2][Sn]([CH2]CCC)([CH2]CCC)[O][Sn]([CH2]CCC)([CH2]CCC)[CH2]CCC | inactive; negative
23 | C=CC(=O)OCC(CO)(COCC(COC(=O)C=C)(COC(=O)C=C)COC(=O)C=C)COC(=O)C=C | inactive; negative
24 | c1ccc(Oc2ccccc2)cc1 | inactive; negative
25 | CC1CCC2CC1C2(C)C (stereo not drawn) | inactive; negative
26 | Cc1ccc(C)cc1 | inactive; negative

Row | Structure (SMILES) | outcome
27 | O=C(O)c1cc(O)c2c(c1)C(=O)c1cccc(O)c1C2=O | active; positive
28 | C=CCN(CC=C)CC=C | inactive; negative
29 | N[C@@H](Cc1c[nH]c2ccc(O)cc12)C(=O)O | inactive; negative
30 | CC(=O)C=Cc1ccc2c(c1)OCO2 | inactive; negative
31 | CC(=O)c1cc(C)oc1C | active; positive
32 | Nc1ccccc1-c1ccccc1 | active; positive
33 | COCCOC(C)=O | active; weakly positive
34 | Clc1ccc2ccccc2c1 | inactive; negative
35 | Nc1ccccc1[N+](=O)[O-] | inactive; negative
36 | COCOC | inactive; negative
37 | CCc1ccccc1 | inactive; negative
38 | CC(C)(C)c1ccc(O)c(O)c1 | inactive; negative
39 | CCNC(=O)Nc1ncc([N+](=O)[O-])s1 | active; positive
40 | c1ccc2cc(Nc3ccc(Nc4ccc5ccccc5c4)cc3)ccc2c1 | active; positive
41 | O=C1OC2(c3cc(Br)c(O)c(Br)c3Oc3c2cc(Br)c(O)c3Br)c2c(Cl)c(Cl)c(Cl)c(Cl)c21 | active; positive
42 | CCCNC(C)C(=O)Nc1ccccc1C (stereo not drawn) | inactive; negative
43 | CCN(N=O)C(N)=O | active; positive
44 | O=Nc1ccc(NO)cc1 | active; positive
45 | Oc1c(Br)c(Br)c(Br)c(Br)c1Br | inactive; negative
46 | Cc1ccc(S(=O)(=O)NC2CCCCC2)cc1 | inactive; negative
47 | O=C(O)C(F)(F)C(F)(F)C(F)(F)C(F)(F)C(F)(F)F | inactive; negative
48 | ClCCCl | active; positive
49 | CCCCC(CC)COC(=O)CCCCCCCCC(=O)OCC(CC)CCCC (stereo not drawn) | inactive; negative
50 | c1cnc2c(c1)ccc1cccnc12 | inactive; negative
51 | CC(=O)c1ccccc1[N+](=O)[O-] | inactive; negative
52 | CC=C1CC2C=CC1C2 (stereo not drawn) | inactive; negative

Row | Structure (SMILES) | outcome
53 | O=[N+]([O-])c1ccc(F)c([N+](=O)[O-])c1 | active; positive
54 | CCCCCCCCCCCCCCC1CO1 (stereo not drawn) | inactive; negative
55 | Nc1ccc([N+](=O)[O-])cc1O | active; positive
56 | CCN(CC)c1ccc(N)cc1 | active; positive
57 | C=CCCC#N | inactive; negative
58 | N#CCc1ccccc1[N+](=O)[O-] | active; positive
59 | COCCOC(=O)c1ccccc1C(=O)OCCOC | active; positive
60 | COc1cc(Cl)c(OC)cc1Cl | active; positive
61 | N#CC(Br)Br | active; positive
62 | Nc1ccc(NCCO)c([N+](=O)[O-])c1 | active; positive
63 | Nc1ccc(Cl)c(N)c1 | active; positive
64 | C=C(Cl)CCl | active; positive
65 | C=CC(=O)NCO | inactive; negative
66 | CCNC(=S)NCC | inactive; negative
67 | Clc1cc2c(cc1Cl)Oc1cc(Cl)c(Cl)cc1O2 | inactive; negative
68 | NC1CCCCC1 | inactive; negative
69 | CCOC=O | inactive; negative
70 | Cc1ccc(N)cc1[N+](=O)[O-] | active; positive
71 | CCOC(=O)CC(SP(=O)(OC)OC)C(=O)OCC (stereo not drawn) | inactive; negative
72 | CCCN(CCC)CCC | inactive; negative
73 | NC(N)=S | inactive; negative
74 | CC(C)(OOC(C)(C)c1ccccc1)c1ccccc1 | inactive; negative
75 | NS(=O)(=O)c1cc2c(cc1Cl)NCNS2(=O)=O | inactive; negative
76 | CCCCN(CCO)CCCC | inactive; negative
77 | COc1ccc(C(=O)c2ccccc2)c(O)c1 | active; weakly positive
78 | [CH3][Pb]([CH3])([CH3])[CH3] | inactive; negative

Row | Structure (SMILES) | outcome
79 | CCC[N+](CCC)(CCC)CCC | active; weakly positive
80 | CNC(=O)c1ccccc1 | inactive; negative
81 | CCCCCCCCC(=O)O | inactive; negative
82 | [O]=[Cr](=[O])([OH])[O][Cr](=[O])(=[O])[OH] | active; positive
83 | CCCCCc1cc(O)cc(O)c1 | inactive; negative
84 | Cc1ccccc1O | inactive; negative
85 | Cc1c(C(=O)O)c(O)cc2c1C(=O)c1c(O)c([C@@H]3O[C@H](CO)[C@@H](O)[C@H](O)[C@H]3O)c(O)c(O)c1C2=O | active; weakly positive
86 | Cc1cc(C)c(N=Nc2c(O)c(S(=O)(=O)O)cc3cc(S(=O)(=O)O)ccc23)cc1C | inactive; negative
87 | CCOC(=O)CBr | active; positive
88 | CCNc1cc(O)ccc1C | active; positive
89 | CCOP(=S)(OCC)SC1OCCOC1SP(=S)(OCC)OCC (stereo not drawn) | active; positive
90 | COc1cc(-c2ccc(N)c(OC)c2)ccc1N | active; positive
91 | Nc1ccc(S(=O)(=O)Nc2nccs2)cc1 | inactive; negative
92 | CN1C[C@H](C(=O)N[C@]2(C)O[C@@]3(O)[C@@H]4CCCN4C(=O)[C@H](Cc4ccccc4)N3C2=O)C=C2c3cccc4[nH]cc(c34)C[C@H]21 | inactive; negative
93 | Nc1ccc([N+](=O)[O-])c(N)c1 | active; positive
94 | OCC(CO)(CBr)CBr | active; positive
95 | Nc1ccc(F)cc1F | active; positive
96 | ClC=C(Cl)Cl | inactive; negative
97 | CCCCOC(=O)c1ccccc1N | inactive; negative
98 | OCCNCCO | inactive; negative
99 | CCCCCCCCCCCOC(=O)c1ccccc1C(=O)OCCCCCCCCCCC | inactive; negative
100 | CC1CCCC1 | inactive; negative
101 | CCOP(=S)(OCC)Oc1ccc([N+](=O)[O-])cc1 | active; weakly positive
102 | CC1(C)[C@@H]2CC[C@@]1(C)C(=O)C2 | inactive; negative
103 | Nc1nc2ccccc2[nH]1 | inactive; negative
104 | C=C(C)OC(C)=O | inactive; negative

Row | Structure (SMILES) | outcome
105 | C=CCOC(C)=O | active; positive
106 | CC1=C(/C=C/C(C)=C/C=C/C(C)=C/C=C/C=C(C)/C=C/C=C(C)/C=C/C2=C(C)CCCC2(C)C)C(C)(C)CCC1 | active; positive
107 | C1CCC2OC2C1 (stereo not drawn) | active; positive
108 | O=C(O)C(F)(F)C(F)(F)C(F)(F)C(F)(F)C(F)(F)C(F)(F)C(F)(F)C(F)(F)C(F)(F)C(F)(F)C(F)(F)F | inactive; negative
109 | NC(=O)NNC(N)=O | inactive; negative
110 | CCCCCCCCCCCCCCCCCC[N+](C)(C)Cc1ccccc1 | inactive; negative
111 | CC(C)(C)OC=O | inactive; negative
112 | O=C(NCNC(=O)NC1C(=O)NC(=O)N1CO)NC1C(=O)NC(=O)N1CO (stereo not drawn) | active; positive
113 | O=C(O)COc1ccc(Cl)cc1Cl | inactive; negative
114 | O=C(O)CO | inactive; negative
115 | CCCCCCCC(=O)Cl | active; positive
116 | CNC(=O)CSP(=S)(OC)OC | active; positive
117 | CCCCN | inactive; negative
118 | O=C1Nc2ccc(S(=O)(=O)O)cc2C1=O | active; positive
119 | O=S(=O)([O-])[O-].[O]=[V+2] | inactive; negative
120 | O=C(O)c1ccc(O)cc1O | inactive; negative
121 | Cc1ccc(C)o1 | inactive; negative
122 | CCCCOC(=O)c1ccccc1C(=O)OCc1ccccc1 | inactive; negative
123 | Cc1noc(NS(=O)(=O)c2ccc(N)cc2)c1C | inactive; negative
124 | O=C(O)c1ccc2c(c1)C(=O)OC2=O | inactive; negative
125 | Nc1ccc(N=Nc2ccc(-c3ccc(N=Nc4c(S(=O)(=O)O)cc5cc(S(=O)(=O)O)c(N=Nc6ccccc6)c(O)c5c4N)cc3)cc2)c(N)c1 | active; positive
126 | C1CN1c1nc(N2CC2)nc(N2CC2)n1 | active; positive
127 | CCCC(=O)OCC | inactive; negative
128 | Oc1ccccc1 | inactive; negative
